Patent publication US8530680B2, “System and method for controlling growth of microorganisms with brominated furanones” (Syracuse University, priority 2008, dated 2013)

Key:
[1] = system: Trametes versicolor strain TV57MAD277; test: Fungal growth on MEA plates with furanone; format: cell-based; design: key to growth on plate, TV57MAD277: −: No growth was observed; +: normal growth was seen; conditions: for growth on plate, TV57MAD277: 60 μg/mL, 7 days at 30° C.; for growth inhibition test, inhibitory concentration, TV57MAD277: tested at 1, 5, 30, 60 μg/mL, 7 days
Procedure: (§1) This Example examines the effect of brominated furanones on the growth of fungi associated with damage to building material. Six fungal strains were the subject of these experiments; Gloeophyllum trabeum (strains GT598 and GT599), Chaetomium globosum (wildtype strain and CG572), and Trametes versicolor (strains TV7B2-59 and TV57MAD277). The species were developed on 2% Malt-Extract Agar (MEA) plates and stored inverted at 4° C. The stocks were refreshed by streaking new plates every two months.
(§2) The brominated and non-brominated furanones were added to MAE agar plates at different concentrations. The brominated furanones were dissolved in either ethanol (“EtOH”) or methanol (“MeOH”) as stock solutions, as shown in Table 5. The non-brominated furanones were purchased from Sigma (St. Louis, Mo.). The furanone stocks were stored at 4° C.
(§3) MAE agar plates containing the same amounts of ethanol/methanol were also prepared as negative controls to eliminate any solvent effects. The plates were prepared using either 90 mm or 60 mm petri dishes and were stored inverted at 4° C. until use.
(§4) Different concentrations of furanones were studied to compare their antifungal activities. The plates were inoculated with the six fungal strains using a platinum loop and were incubated upside down at 30° C. for 7 days to monitor the growth. The initial screening was performed using a single 60 μg/mL furanone concentration.

[2] = system: E. coli; test: E. coli growth inhibition (results not shown); format: cell-based
[3] = system: P. aeruginosa strain PAO1; test: Microplate based planktonic growth assay of P. aeruginosa; format: cell-based, Pseudomonas aeruginosa; conditions: for reduction of specific growth rate compared to furanone-free control: planktonic growth
Procedure: The antimicrobial activities of furanones on the planktonic growth of P. aeruginosa strain PAO1 was examined using a microplate based growth assay. An overnight culture of the strain grown in LB medium at 30° C. was used to inoculate M63 minimal medium supplemented with furanones at 0, 30 or 60 μg/mL to an optical density at 600 nm (OD600) of 0.05 in 96-well plates. The plates were then incubated at 30° C. with shaking at 200 rpm. The reading of OD600 was measured every 60 minutes for six hours using a microplate reader (ELx808, BioTek Instruments). Six replicates were tested for every sample. The synthesis of the brominated furanones, the structures of which are shown in FIGS. 1A and 1B, was according to Example 1.

[4] = system: six fungal strains (Gloeophyllum trabeum, Chaetomium globosum, Trametes versicolor); test: Fungal growth on MEA plates with furanone, statements for all six strains; format: cell-based; conditions: for growth inhibition of the six fungal strains, comparison: 1 to 60 μg/mL
Procedure: as §1, §2, §3, §4

[5] = system: Gloeophyllum trabeum strain GT599; test: Fungal growth on MEA plates with furanone; format: cell-based; design: key to growth on plate, GT599: −: No growth was observed; +: normal growth was seen; conditions: for growth on plate, GT599: 60 μg/mL, 7 days at 30° C.; for growth inhibition test, inhibitory concentration, GT599: tested at 1, 5, 30, 60 μg/mL, 7 days
Procedure: as §1, §2, §3, §4

[6] = system: Trametes versicolor strain TV7B2-59; test: Fungal growth on MEA plates with furanone; format: cell-based; design: key to growth on plate, TV7B2-59: −: No growth was observed; +: normal growth was seen; conditions: for growth on plate, TV7B2-59: 60 μg/mL, 7 days at 30° C.; for growth inhibition test, inhibitory concentration, TV7B2-59: tested at 1, 5, 30, 60 μg/mL, 7 days
Procedure: as §1, §2, §3, §4

[7] = system: P. aeruginosa strain PAO1 biofilm formation; test: Microplate-based biofilm assay (crystal violet, OD540) of P. aeruginosa; format: cell-based, Pseudomonas aeruginosa; conditions: 24 hours
Procedure: A microplate-based biofilm assay was used to further investigate whether furanones inhibit biofilm formation of P. aeruginosa strain PAO1. For this biofilm assay the strain was grown at 30° C. without shaking in M63 minimal medium containing 13.6 g/L KH2PO4, 2 g/L (NH4)2SO4, 0.5 mg/L FeSO4, 0.12 g/L MgSO4, 5 g/L vitamin free casamino acids and 5 g/L glucose (pH 7.0). The synthesis of the brominated furanones, the structures of which are shown in FIGS. 1A and 1B, was according to Example 1.
The overnight culture of P. aeruginosa was used to inoculate fresh M63 medium supplemented with furanones (0, 30 or 60 μg/mL) to an OD600 of 0.05 in 96-well plates. Four replicates were tested for each condition. The plates were incubated at 30° C. without shaking for 24 hours. The biofilm mass was quantified by following the protocol described previously. Briefly, the planktonic cells were carefully removed by pipetting and the plates with biofilms were washed three times with deionized H2O and dried by gently patting on a piece of paper towel. To quantify biofilms, the plates were stained with 0.1% crystal violet and incubated for 20 minutes at room temperature. The plates were then washed three times with deionized H2O to remove extra dyes. An OD540 was measured to quantify the biofilm on the bottom of each well.

[8] = system: Gloeophyllum trabeum strain GT598; test: Fungal growth on MEA plates with furanone; format: cell-based; design: key to growth on plate, GT598: −: No growth was observed; +: normal growth was seen; conditions: for growth on plate, GT598: 60 μg/mL, 7 days at 30° C.; for growth inhibition test, inhibitory concentration, GT598: tested at 1, 5, 30, 60 μg/mL, 7 days
Procedure: as §1, §2, §3, §4

[9] = system: Chaetomium globosum CG572; test: Fungal growth on MEA plates with furanone; format: cell-based; design: key to growth on plate, CG572: −: No growth was observed; +: normal growth was seen; conditions: for growth on plate, CG572: 60 μg/mL, 7 days at 30° C.; for growth inhibition test, inhibitory concentration, CG572: tested at 1, 5, 30, 60 μg/mL, 7 days
Procedure: as §1, §2, §3, §4

[10] = system: Chaetomium globosum wildtype strain (CG); test: Fungal growth on MEA plates with furanone; format: cell-based; design: key to growth on plate, CG: −: No growth was observed; +: normal growth was seen; conditions: for growth on plate, CG: 60 μg/mL, 7 days at 30° C.; for growth inhibition test, inhibitory concentration, CG: tested at 1, 5, 30, 60 μg/mL, 7 days
Procedure: as §1, §2, §3, §4

[11] = system: Candida albicans strain SC5341; test: C. albicans growth curves in SD medium with furanones (96-well plates, OD600); format: cell-based; conditions: tested 2.5, 5, 10, 20 μg/mL
Procedure: To evaluate the effects of furanones on fungal growth, C. albicans was grown in a synthetic dextrose (“SD”) medium supplemented with 0, 2.5, 5, 10, or 20 μg/mL of one of eight different brominated furanones and […] furanones (BF1, BF8, BF9, BF11, BF12, BF14, NF1, NF2, or NF3).
The Candida albicans strain SC5341 used in this study was provided by Dr. Sean Palecek from the University of Wisconsin-Madison. C. albicans was routinely grown overnight at 30° C. and shaken at 200 rpm in a SD medium containing 0.67% (wt/vol) yeast nitrogen base without amino acids and 2% (wt/vol) dextrose, which was buffered with 0.165 M morpholinepropanesulfonic acid (MOPS, Sigma), and pH-adjusted to 7.0 with solid NaOH. The overnight culture was then sub-cultured in 25 mL of fresh SD medium to an initial optical density at 600 nm (OD600) of 0.005 and grown till the OD600 reached 1.0. The OD600 values were measured using a Spectronic GENESYS 5 UV-Vis spectrophotometer (Thermo Fisher Scientific®, Waltham, Mass.). This culture was used to inoculate sterile 96-well plates (Costar® No. 9017, Corning®, Corning, N.Y.) containing SD medium supplemented with furanones at different concentrations (0, 2.5, 5, 10, 20 μg/mL) to an OD600 of 0.06 in at least duplicates. The BF1, 8, 9, 11, 12, 14 and NF1-3 compounds were dissolved in ethanol at a concentration of 20 mg/mL. The BF10 compound was dissolved in methanol at a concentration of 20 mg/mL. The amounts of methanol and ethanol were adjusted to be the same for each sample to eliminate the effects of solvents. The samples were then incubated at 30° C. with shaking at 200 rpm, and the OD600 in each well was measured at 0, 4, 7, 17, and 42 hours after inoculation, using an ELx808™ Absorbance Microplate Reader (BioTek Instruments® Inc., Winooski, Vt.).

SMILES	growth inhibition test, inhibitory concentration, TV57MAD277 [1] [µg/mL]	growth inhibition test, inhibitory concentration, GT599 [5] [µg/mL]	growth inhibition test, inhibitory concentration, TV7B2-59 [6] [µg/mL]	inhibition of biofilm formation ([7]; 30 μg/mL)	inhibition of biofilm formation ([7]; 60 μg/mL)	growth inhibition test, inhibitory concentration, GT598 [8] [µg/mL]	growth inhibition test, inhibitory concentration, CG572 [9] [µg/mL]	growth inhibition test, inhibitory concentration, CG [10] [µg/mL]	inhibitory effect on planktonic growth ([3]; 30 μg/mL)	also measured
O=C1OC(=C(Br)Br)C=C1CBr [BF11, 3-(bromomethyl)-5-(dibromomethylene)furan-2-one]	5	5	5	significantly inhibited	significantly inhibited	1	5	5		growth on plate, TV57MAD277 [1]: −; growth inhibition of E. coli [2]: significantly inhibit; reduction of specific growth rate compared to furanone-free control ([3]; 30 μg/mL): 27.3%; reduction of specific growth rate compared to furanone-free control ([3]; 60 μg/mL): 65.0%; growth inhibition of the six fungal strains, comparison [4]: most significant inhibition; growth on plate, GT599 [5]: −; growth on plate, TV7B2-59 [6]: −; growth on plate, GT598 [8]: −; growth on plate, CG572 [9]: −; growth on plate, CG [10]: −
O=C1O/C(=C\Br)C(Br)=C1CBr [BF12, 4-bromo-3-(bromomethyl)-5Z-(bromomethylene)furan-2-one]	5	5	5	significantly inhibited	significantly inhibited	1	5	1		growth inhibition of E. coli [2]: significantly inhibit; reduction of specific growth rate compared to furanone-free control ([3]; 30 μg/mL): 91.2%; reduction of specific growth rate compared to furanone-free control ([3]; 60 μg/mL): 100%; growth inhibition of the six fungal strains, comparison [4]: most significant inhibition
CC1=C(Br)C(C(Br)Br)OC1=O (stereo not drawn) [BF13, 4-bromo-5-(dibromomethyl)-3-methylfuran-2(5Br)-one]	5	60	60	significantly inhibited	significantly inhibited	60	60	60	did not exhibit significant inhibitory effects	
CC1=C(Br)C(C(Br)Br)OC1=O (stereo not drawn) [BF14, 4-bromo-5-(dibromomethyl)-3-methylfuran-2(5H)-one]									did not exhibit significant inhibitory effects	lowest concentration showing growth inhibition [11]: 20 µg/mL; inhibition of biofilm formation ([7]; 30 and 60 μg/mL): non-inhibitory
O=C1C=C(CBr)C(=O)O1 [BF15, 3-(bromomethyl)-2,5-furandione]										growth on plate, TV57MAD277 [1]: −; growth on plate, GT599 [5]: −; growth on plate, TV7B2-59 [6]: −; growth on plate, GT598 [8]: −; growth on plate, CG572 [9]: −; growth on plate, CG [10]: −
CC1=CC(=O)OC1=O [NF1, Citraconic anhydride; IUPAC: 3-methyl-2,5-furandione, reference compound]	60	60	60			60	60	60	did not exhibit significant inhibitory effects	
COC1=CC(=O)OC1 [NF2, 4-Methoxy-2(5H)-furanone; IUPAC: 4-methoxy-2(5H)-furanone, reference compound]										growth inhibition of the six fungal strains ([4]; 60 μg/mL, 7 days): did not show any apparent inhibition
CC1=CC(C)OC1=O (stereo not drawn) [NF3, 3,5-Dimethylfuran-2(5H)-one, reference compound]									did not exhibit significant inhibitory effects	
